# Experimental data as given in patent US9066887B2, “Transdermal therapeutic system having urea components” (LTS LOHMANN THERAPIE-SYSTEME AG, priority 2008, dated 2015).
# Assay: In vitro permeation from TTS in Franz diffusion cell
# Settings: TTS with 10% (m/m) active ingredient and 20% (m/m) solid urea of particle size >100 μm (B) versus TTS containing no urea (A); acrylate adhesive matrix; cow udder, 32° C., 72 h
# Protocol: A commercial acrylate adhesive was dissolved in a solvent. […] This acrylate adhesive composition was cast to form a reservoir layer 500 μm in thickness, and the solvent was evaporated, producing a matrix basis weight of 100 g/m^2. A number of experimental TTS were punched from this active ingredient laminate, and were then used for experiments in vitro.
# The Franz diffusion cell is composed of a donor compartment and an acceptor compartment, separated by a membrane (cow udder). The donor compartment contains the TTS, while, for the acceptor compartment, a physiological buffer was used, conditioned to a temperature of 32° C. Samples were taken from the acceptor compartment over a period of 72 h, and were analyzed by HPLC for the permeated amount of active ingredient.
row,SMILES,"increase in active ingredient permeation through the skin (cumulative permeated amount), factor"
1,Cn1c(=O)c2c(ncn2C)n(C)c1=O [caffeine],8
2,c1ccc(Cn2c(N3CCNCC3)nc3ccccc32)cc1 [lerisetron],9
3,Clc1ccc2nsnc2c1NC1=NCCN1 [tizanidine],4
